Reference: BindingDB's records for doi:10.1021/acs.jmedchem.5b02042 (University of South Florida, 2016)
pKd: −log10 of the molar value.

Biological target: Stromal cell-derived factor 1 (Homo sapiens, UniProt P48061)
Assay: Binding affinity to His6-SUMO fusion tagged wild type human [U-15N]CXCL12 expressed in Escherichia coli by 2D 1H-15N HMQC NMR spectroscopy

Stromal cell-derived factor 1, sequence (P48061 whole entry, the tested form may be a part): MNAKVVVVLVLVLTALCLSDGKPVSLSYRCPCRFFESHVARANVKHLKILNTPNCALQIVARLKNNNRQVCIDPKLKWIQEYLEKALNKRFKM

Structure (SMILES) | pKd
CCCOc1ccc(C(Nc2ccc(F)cc2)P(=O)(O)O)cc1 (configuration not stated) | 2.96
O=C(O)CC1c2ccccc2CCN1C(=O)Nc1cccc(F)c1 (configuration not stated) | 2.39
